For one series, the system named is hepatoma HepG2 cells. Nature of the series: hepatotoxicity, HepG2 cell viability. In kind it is cell-based.
The test system of series [1] is PTZ-induced clonic seizures in mice. To be noted: i.p., known AED profile, Fig. 1; cited from earlier work.
Another series deals with PTZ-kindled mice. Further details: method as in PMID 30247871. To be noted: former study, ref [13]; cited from earlier work.
Series [2] concerns maximal electroshock (MES) seizure. To be noted: mice, i.p.; known AED profile, Fig. 1; cited from earlier work.
Series [3] deals with 6-Hz (32 mA) psychomotor seizures. Conditions: mice, i.p.; known AED profile, Fig. 1; cited from earlier work.
Another series relates to 6-Hz seizures. Set-up: method as in PMID 28449218. To be noted: 6-Hz test; ref [17]; cited from earlier work.

Each structure is given as a SMILES string.

As for `N#CC(C#N)=NNc1cccc(Cl)c1` [CCCP, carbonyl cyanide 3-chlorophenylhydrazone, reference compound], the “HepG2 cells' viability” value in the series on hepatoma HepG2 cells (10 μM) is reported as ~ 40 % of control.

Take `COc1cccc2c1C(=O)c1c(O)c3c(c(O)c1C2=O)C[C@@](O)(C(=O)CO)C[C@@H]3O[C@H]1C[C@H](N)[C@H](O)[C@H](C)O1` [DX, doxorubicin, reference compound]: the “HepG2 cells' viability” value in the series on hepatoma HepG2 cells (1 μM) was ~ 40 % of control.

For `CCC1(C)CC(=O)NC1=O` (centres unmarked) [ETX, ethosuximide], the “anticonvulsant activity in scPTZ” value in series [1] was “active”.

In the case of `CC(C(=O)N1CCN(c2cccc(C(F)(F)F)c2)CC1)N1C(=O)CCC1=O` (centres unmarked) [KA-11, 1-(1-oxo-1-(4-(3-(trifluoromethyl)phenyl)piperazin-1-yl)propan-2-yl)pyrrolidine-2,5-dione], in the series on PTZ-kindled mice, the “effect on depressive-like behavior caused by PTZ-induced kindling” value is recorded as “prevented the depressive-like behavior”.

As to `COC[C@@H](NC(C)=O)C(=O)NCc1ccccc1` [LCS, lacosamide, reference compound], in series [2], the “anticonvulsant activity in MES” value is listed as “active”. Moreover, the “anticonvulsant activity in 6 Hz, 32 mA” value in series [3] is given as “active”.

As for `CC[C@@H](C(N)=O)N1CCCC1=O` [LEV, levetiracetam], the “anticonvulsant activity in 6 Hz, 32 mA” value in series [3] is “active”. Moreover, the “ED50 at 44 mA versus ED50 at 32 mA stimulus intensity” value with 6-Hz seizures is “at least 50 times”.

Values taken from article PMC7007424 (Neurotherapeutics, 2019).
